Measured values from ChEMBL document CHEMBL5331072, “Development of potent and selective FAAH inhibitors with improved drug-like properties as potential tools to treat neuroinflammatory conditions” (Eur J Med Chem, 2023).
≈ marks a conversion by molar mass, not a printed value. Calls of active or inactive are those of the source. The calls are words filed in the database; no cut-off is given here.

How the values were obtained:
[1] = biological target: T1, Fatty-acid amide hydrolase 1 (Homo sapiens, UniProt O00519); experiment: Inhibition of human recombinant FAAH using AMC-AA as substrate preincubated for 30 mins followed by substrate addition and measured after 30 mins by multimode plate reader analysis
T1 sequence (O00519 whole entry): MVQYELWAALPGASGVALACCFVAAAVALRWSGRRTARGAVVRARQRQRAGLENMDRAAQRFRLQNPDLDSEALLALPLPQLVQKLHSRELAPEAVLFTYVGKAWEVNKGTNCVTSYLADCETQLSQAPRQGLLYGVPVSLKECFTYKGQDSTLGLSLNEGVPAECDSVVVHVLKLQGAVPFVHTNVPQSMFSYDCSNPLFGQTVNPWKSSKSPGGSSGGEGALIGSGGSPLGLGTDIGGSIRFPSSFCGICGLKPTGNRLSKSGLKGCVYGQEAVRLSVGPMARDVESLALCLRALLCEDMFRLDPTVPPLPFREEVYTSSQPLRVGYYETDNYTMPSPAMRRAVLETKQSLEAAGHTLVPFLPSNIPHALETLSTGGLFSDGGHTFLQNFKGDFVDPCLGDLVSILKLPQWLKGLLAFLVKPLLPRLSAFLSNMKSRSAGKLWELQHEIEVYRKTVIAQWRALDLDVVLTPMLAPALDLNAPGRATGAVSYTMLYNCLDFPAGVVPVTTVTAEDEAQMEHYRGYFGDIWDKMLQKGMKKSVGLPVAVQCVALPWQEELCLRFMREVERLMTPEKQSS

Monoglyceride lipase = biological target: T2, Monoglyceride lipase (Homo sapiens, UniProt Q99685); experiment: Inhibition of human recombinant MAGL using 7-hydroxycoumarinyl arachidonate as substrate preincubated for 30 mins followed by substrate addition and measured after 30 mins by multimode plate reader analysis
T2 sequence (Q99685 whole entry): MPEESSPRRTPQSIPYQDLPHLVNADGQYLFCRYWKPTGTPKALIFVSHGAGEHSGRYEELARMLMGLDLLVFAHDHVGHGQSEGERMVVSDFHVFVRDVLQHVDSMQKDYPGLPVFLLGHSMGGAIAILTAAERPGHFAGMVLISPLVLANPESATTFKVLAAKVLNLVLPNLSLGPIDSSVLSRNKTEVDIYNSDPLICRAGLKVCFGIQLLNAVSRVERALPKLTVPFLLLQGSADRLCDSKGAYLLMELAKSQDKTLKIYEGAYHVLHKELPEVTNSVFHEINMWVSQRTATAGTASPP

[2] = Dissociation constant, pKa of the compound; format: physicochemical
[3] = biological target: T3, Fatty-acid amide hydrolase 1 (Homo sapiens) (UniProt O00519); experiment: Reversible inhibition of human recombinant FAAH at 10 to 100 nM using AMC-AA as substrate preincubated for 30 mins followed by substrate addition and measured after 30 mins by rapid dilution method; conditions: dose 10-100 nM, time 1.0 hrs
T3 sequence (whole entry): T1 sequence (O00519 whole entry)

[4] = Chemical stability of the compound at pH 3 measured for 24 hrs by HPLC analysis; format: physicochemical; conditions: buffer, read-out: Stability
[5] = Chemical stability of the compound at pH 7.4 measured for 24 hrs by HPLC analysis; format: physicochemical; conditions: buffer, read-out: Stability
[6] = Solubility of compound at pH 3 measured for 24 hrs; format: physicochemical; conditions: buffer
[7] = Solubility of compound at pH 7.4 measured for 24 hrs; format: physicochemical; conditions: buffer
[8] = Cytotoxicity against mouse NIH3T3 cells assessed as inhibition of cell growth measured for 24 hrs by neutral red uptake assay; format: toxicity, cell-based
1321N1 [9] = experiment: Cytotoxicity against human 1321N1 cells assessed as inhibition of cell growth at 10 nM measured for 24 hrs by MTT assay; format: functional; design: scale not given: the % may be the effect or the level left
1321N1 [10] = experiment: Cytotoxicity against human 1321N1 cells assessed as inhibition of cell growth at 100 nM measured for 24 hrs by MTT assay; format: functional; design: scale not given: the % may be the effect or the level left
1321N1 [11] = experiment: Cytotoxicity against human 1321N1 cells assessed as inhibition of cell growth at 1 uM measured for 24 hrs by MTT assay; format: functional; design: scale not given: the % may be the effect or the level left
1321N1 [12] = experiment: Cytotoxicity against human 1321N1 cells assessed as inhibition of cell growth at 10 uM measured for 24 hrs by MTT assay; format: functional; design: scale not given: the % may be the effect or the level left
1321N1 [13] = experiment: Cytotoxicity against human 1321N1 cells assessed as inhibition of cell growth at 30 uM measured for 24 hrs by MTT assay; format: functional; design: scale not given: the % may be the effect or the level left
1321N1 [14] = experiment: Antiinflammatory activity against human 1321N1 cells assessed as reduction in TBHP-induced ROS production at 10 nM incubated for 24 hrs by CellROX green reagent based flow cytometry assay; format: functional, cell-based
1321N1 [15] = experiment: Antiinflammatory activity against human 1321N1 cells assessed as reduction in TBHP-induced ROS production at 1 uM incubated for 24 hrs by CellROX green reagent based flow cytometry assay; format: functional, cell-based
[16] = Neurotoxicity against Wistar rat Hippocampus assessed as cell survival at 0.3 to 100 nM measured for 96 hrs by densitometric analysis; format: toxicity, tissue-based; conditions: 0.1 µM, dose 0.3-100 nM
Hippocampus [17] = experiment: Neuroprotective activity against Wistar rat Hippocampus assessed as reduction in LPS/IFN-gamma induced PI uptake in CA1 region at 0.3 to 100 nM measured for 96 hrs; format: functional; design: scale not given: the % may be the effect or the level left; conditions: dose 0.3-100 nM
Hippocampus [18] = experiment: Neuroprotective activity against Wistar rat Hippocampus assessed as reduction in LPS/IFN-gamma induced PI uptake in CA1 region measured for 96 hrs; format: functional, tissue-based
Hippocampus [19] = experiment: Neuroprotective activity against Wistar rat Hippocampus assessed as reduction in LPS/IFN-gamma induced PI uptake in CA1 region at 0.1 to 10 uM measured for 96 hrs; format: functional, tissue-based; conditions: dose 0.1-10 µM
[20] = Solubility of compound at pH 3 measured for 12 hrs; format: physicochemical; conditions: buffer
[21] = Solubility of compound at pH 7.4 measured for 12 hrs; format: physicochemical; conditions: buffer
Hippocampus [22] = experiment: Neuroprotective activity against Wistar rat Hippocampus assessed as reduction in LPS/IFN-gamma induced PI uptake in CA1 region at 3 to 100 nM measured for 96 hrs; format: functional, tissue-based; conditions: dose 3-100 nM

Structure (SMILES)	IC50 [1]	IC50 (Monoglyceride lipase)	remaining at 24 h [4]	remaining at 24 h [5]	solubility at 24 h [6]	solubility at 24 h [7]	also measured
Cc1cc(C(N)=O)c(-c2cccc(OC(=O)NC3CCN(CCc4ccccc4)CC3)c2)s1	194 nM	> 10000 nM	–	–	–	–	–
Cc1cc(C(N)=O)c(-c2cccc(OC(=O)N3CCN(CCCc4ccccc4)CC3)c2)o1	8.29 nM	5060 nM	98%	> 99%	168 µM (≈ 75.2 µg/mL)	< 1 µM	pKa [2]: 8.5; inhibition [3]: Active; IC50 at 24 h [8]: 6400 nM; Activity (1321N1 [9]): 99.3%; Activity (1321N1 [10]): 97%; Activity (1321N1 [11]): 100%; Activity (1321N1 [12]): 101%; Activity (1321N1 [13]): 96%; Activity (1321N1 [14]): Active; Activity (1321N1 [15]): Active; Activity [16]: Non-Toxic; Activity (Hippocampus [17]): 70%; EC50 (Hippocampus [18]): 2.91 nM
Cc1cc(C(N)=O)c(-c2cccc(OC(=O)N(C)C3CCN(CCc4ccccc4)CC3)c2)s1	8450 nM	> 10000 nM	–	–	–	–	–
CN(C(=O)Oc1cccc(-n2ccc(C(N)=O)c2)c1)C1CCN(CCc2ccccc2)CC1	> 10000 nM	> 10000 nM	–	–	–	–	–
Cc1cc(C(N)=O)c(-c2cccc(OC(=O)NCCCCCCN3CCN(C)CC3)c2)o1	1040 nM	> 10000 nM	–	–	–	–	–
Cc1cc(C(N)=O)c(-c2cccc(OC(=O)N3CCC(NCCCc4ccccc4)CC3)c2)o1	165 nM	9880 nM	> 99%	> 99%	353 µM (≈ 163 µg/mL)	322 µM (≈ 149 µg/mL)	–
O=C(NCCCCCCc1ccccc1)Oc1cccc(-c2nn[nH]n2)c1	7.54 nM	8400 nM	< 1%	> 99%	–	108 µM (≈ 39.5 µg/mL)	IC50 at 24 h [8]: 39000 nM; Activity (1321N1 [9]): 100.8%; Activity (1321N1 [10]): 98.5%; Activity (1321N1 [11]): 98.8%; Activity (1321N1 [12]): 99.8%; Activity (1321N1 [13]): 97%; Activity (1321N1 [14]): Active; Activity (1321N1 [15]): Active; Activity [16]: Non-Toxic; Activity (Hippocampus [19]): Active; Activity (Hippocampus [18]): Dose-Dependent Effect
Cc1cc(C(N)=O)c(-c2cccc(OC(=O)NC3CCN(CCCc4ccccc4)CC3)c2)o1	407 nM	> 10000 nM	–	–	–	–	–
NC(=O)c1ccn(-c2cccc(OC(=O)NCCCCCCc3ccccc3)c2)c1	3.72 nM	–	32%	38%	3 µM (≈ 1.22 µg/mL)	–	–
Cc1cc(C(=O)O)c(-c2cccc(OC(=O)N3CCN(CCCc4ccccc4)CC3)c2)o1	128 nM	> 10000 nM	> 99%	97%	249 µM (≈ 112 µg/mL)	259 µM (≈ 116 µg/mL)	–
Cc1cc(C(N)=O)c(-c2cccc(OC(=O)N(C)C3CCN(CCc4ccccc4)CC3)c2)o1	6560 nM	> 10000 nM	–	–	–	–	–
Cc1cc(C(N)=O)c(-c2cccc(OC(=O)NC3CCN(CCc4ccccc4)CC3)c2)o1	188 nM	> 10000 nM	96%	> 99%	282 µM (≈ 126 µg/mL)	67 µM (≈ 30 µg/mL)	–
Cc1cc(C(N)=O)c(-c2cccc(OC(=O)NCCCCCCc3ccccc3)c2)o1	–	–	31%	9%	–	–	solubility at 12 h [20]: < 1 µM; solubility at 12 h [21]: < 1 µM; IC50 at 24 h [8]: 19200 nM
NC(=O)c1cccc(-c2cccc(OC(=O)NC3CCCCC3)c2)c1 [URB-597]	–	9380 nM	–	–	–	–	inhibition [3]: inactive
NC(=O)c1cn(-c2cccc(OC(=O)NCCCCCCc3ccccc3)c2)nn1	15.8 nM	479 nM	63%	79%	–	–	IC50 at 24 h [8]: 35000 nM
Cc1cc(C(=O)O)c(-c2cccc(OC(=O)NCCCCCCc3ccccc3)c2)o1	10.5 nM	2440 nM	< 1%	92.7%	–	172 µM (≈ 72.5 µg/mL)	–
Cc1cc(C(N)=O)c(-c2cccc(OC(=O)N3CCC(CCCc4ccccc4)CC3)c2)o1	11.7 nM	4120 nM	–	–	–	–	–
NC(=O)c1ccn(-c2cccc(OC(=O)NC3CCN(CCc4ccccc4)CC3)c2)c1	315 nM	> 10000 nM	–	–	–	–	–
NC(=O)c1cn(-c2cccc(OC(=O)N3CCN(CCCc4ccccc4)CC3)c2)nn1	47.4 nM	2900 nM	> 99%	> 99%	298 µM (≈ 129 µg/mL)	38 µM (≈ 16.5 µg/mL)	–
Cc1cc(C(N)=O)c(-c2cccc(OC(=O)N3CCN(CCCc4ccccc4)CC3)c2)s1	15.6 nM	> 10000 nM	–	–	–	–	–
Cc1cc(C(N)=O)c(-c2cccc(OC(=O)N3CCC(NCCc4ccccc4)CC3)c2)o1	26.3 nM	> 10000 nM	> 99%	> 99%	277 µM (≈ 124 µg/mL)	206 µM (≈ 92.2 µg/mL)	pKa [2]: 7.6; inhibition [3]: Active; IC50 at 24 h [8]: 45000 nM; Activity [16]: Non-Toxic; Activity (Hippocampus [17]): Active; Activity (Hippocampus [22]): Active
O=C(Oc1cccc(-c2nn[nH]n2)c1)N1CCN(CCCc2ccccc2)CC1	253 nM	> 10000 nM	> 99%	> 99%	268 µM (≈ 105 µg/mL)	272 µM (≈ 107 µg/mL)	–
